# Assay results: US20260272908A1 (VANDERBILT UNIVERSITY, priority 2023, published 2026)
# Tests used:
# phospho-STAT3 (p-STAT3) = test: Western blot for phospho-STAT3 in Meta3 and Meta4 organoids; format: cell-based, mouse; conditions: Meta4; 3 days
# Protocol: (§1) FIG. 3C-3D show the Western blot analysis for p-STAT3 and p-ERK in Meta3 and Meta4 organoids (FIG. 3C) and ratios of p-STAT3/total STAT3 and p-ERK/total ERK (FIG. 3D). […] FIG. 3F-3G show phase-contrast images of Meta4 organoids treated with DMSO, Pyr (100 nM), STAT3-IN-1 (1 μM), Stattic (2 μM), and Cryptotanshinone (CPT) (5 μM) for 3 days (FIG. 3F), and quantitation of organoid diameters before and after treatment (FIG. 3G). FIG. 3H-3I show phase-contrast images of Meta4 organoids treated with DMSO, trametinib (Tra), STAT3-IN-1, combination of Tra and STAT3-IN-1, and Pyr, for 3 days (FIG. 3H), and quantitation of organoid diameters before and after treatment (FIG. 3I). FIG. 3J-3K show western blot for p-STAT3 and p-ERK after treatment of Tra, Pyr, and SSTC3 (FIG. 3J) and ratios of p-STAT3/t-STAT3 and p-ERK/t-ERK (FIG. 3K). […] Relative quantification of each gene expression level was normalized to GAPDH gene expression. Shading scale represents the mRNA expression values. FIG. 3M show representative mRNA of Pim-1 and Cyclin-B1 after treatment. Mean±standard deviation. […] Scale bar=500 μM.
# (§2) Total proteins were extracted from organoids using radioimmunoprecipitation assay buffer (10 mmol/L Tris-HC, pH 7.2, 150 mmol/L NaCl, 5 mmol/L EDTA, 0.1% sodium dodecyl sulfate, 1.0% Triton X-100, 1% deoxycholate) with protease inhibitors. The protein concentration was measured The Bio-Rad Protein Assay (Bio-Rad Laboratories, Hercules, CA). 5 to 10 μg of total protein was loaded onto 12.5% or 10% sodium dodecyl sulfate/polyacrylamide gel electrophoresis (PAGE) and transferred onto polyvinylidene difluoride membranes (Millipore, Billerica, MA). […] After washes with TBS-T, chemiluminescence was detected with an Amersham Imager 680 instrument (GE Healthcare) after 1 mL of the SuperSignal West Femto Maximum Sensitivity Substrate (ThermoFisher) was applied to the membranes.
# phospho-ERK (p-ERK) = test: Western blot for phospho-ERK in Meta3 and Meta4 organoids; format: cell-based, mouse; conditions: Meta4; 3 days
# Protocol: as §1, §2
# Meta4 organoids = test: Meta4 dysplastic organoid growth and cell death (organoid diameter, phase-contrast, H&E, live/dead staining); format: cell-based, mouse; conditions: pyrvinium 100 nM, SSTC3 0.2-1 μM, STAT3-IN-1 1 μM, Sttatic 2 μM, 3 days; for cell death: trametinib 1 μM
# Protocol: (§3) All experiments were repeated at least three times.
# (§4) All experiments were performed at least in triplicate.
# Meta3 organoids = test: Meta3 metaplastic organoid growth and survival (organoid diameter, phase-contrast); format: cell-based, mouse; conditions: STAT3-IN-1 1 μM, Sttatic 2 μM, CPT 5 μM, 3 days
# Protocol: as §3, §4
# [1] = system: human pre-cancerous organoid (hPCO) lines; test: Human precancerous organoid (hPCO) growth and organoid death; conditions: STAT3 inhibitors; for response (growth and survival): pyrvinium-resistant hPCO-31
# Protocol: To establish human pre-cancer organoids (hPCO), fresh tissues were obtained from the gastric cancer patients who underwent curative gastrectomy at SNUH (IRB No. H-1806-166-954).
# Meta3, Meta4, and hPCO organoids were cultured in Matrigel (ECM, Sigma) with Mouse or Human IntestiCult medium (StemCell Technology) supplemented with 1% of penicillin/streptomycin (Gibco) in 48-well plates and medium was replaced every 3 days. The organoids were split every 5-7 days before they formed budding structures.
# Mouse or human organoids were split and cultured in the Mouse or Human IntestiCult media for 1-2 days until they formed three-dimensional (3D) spherical structures, then the media was switched to media containing either DMSO vehicle or a certain concentration of each drug and cultured for 3 days. The EVOS M7000 inverted microscope were used to obtain phase contrast images of organoids. All experiments were repeated at least three times.
# The number and diameters of mouse and human organoids treated with drugs were manually counted and measured at day 0 and 3 or 6 after treatment from four entire well images of each condition at 4× magnification. For counting live or dead cells, organoids were stained with Calcein AM for live cells and EthD-1 for dead cells 3 days after treatment and the number of EthD-1 positive organoids were manually counted from images taken from three wells of each condition at 4× magnification. All experiments were performed at least in triplicate. The mean values from each condition were compared by Student's paired or unpaired t-test using Graphpad Prism. *P<0.05, **P<0.01, ***P<0.001, ****P<0.0001.
# [2] = pyrvinium-sensitive hPCO-2 line
Compound,phosphorylation of STAT3^Y705 (phospho-STAT3 (p-STAT3)),p-ERK levels (phospho-ERK (p-ERK)),organoid size / growth (Meta4 organoids),cell death (Meta4 organoids),survival and growth of organoids (Meta3 organoids),response (growth and survival) [1],"organoid survival [1, 2]","organoid growth ([1]; pyrvinium-sensitive hPCO-2 line, 6 days)"
CN(c1ccc(C(F)(F)F)cc1)S(=O)(=O)c1ccc(C(=O)Nc2nc(-c3ccccn3)cs2)cc1 [SSTC3],did not reduce,did not reduce,did not cause any growth suppression or cell death,did not cause any growth suppression or cell death,,,,
COc1cc(/C=C/c2ccc(NC(=O)/C=C/c3cc(OC)c(OC)c(OC)c3)cc2)cc(OC)c1 [STAT3-IN-1],,,induced growth arrest,did not lead to cell death,no influence on the survival and growth,did not respond,survived until 6 days after the treatment,
O=[N+]([O-])c1ccc2c(c1)S(=O)(=O)C=C2 [Sttatic],,,induced growth arrest,did not lead to cell death,no influence on the survival and growth,did not respond,survived until 6 days after the treatment,arrested organoid growth
